Earlier results, collected in patent US20220280447A1, “COMPOSITIONS AND METHODS FOR IMPROVING BRAIN FUNCTION” (HEALTH VIA MODERN NUTRITION INC., priority 2021, published 2022).
Read-outs that look alike come from different tables or passages of the source.

Experiments:
[1] = animal studies
[2] = children
[3] = animal models
[4] = test system: adenosine A1 receptors
[5] = teenagers with social anxiety disorders
[6] = test system: reactive oxygen species (ROS) production by mitochondria; details: in vitro
[7] = in vitro studies
[8] = Schizophrenia-like rat model
[9] = Alzheimer's disease transgenic mice
[10] = test system: NF-icB activation; details: in vitro
[11] = rats fed diet supplemented as 30% of calories
[12] = 20-month oral administration, patient with Alzheimer's disease dementia

C=C(C)[C@@H]1CCC(C)=C[C@H]1c1c(O)cc(CCCCC)cc1O [CBD, cannabidiol]
anti-inflammatory properties [1]: strong anti-inflammatory properties
treatment of certain seizure disorders [2]: effective
anti-anxiety and antidepressant effects [3]: anti-anxiety and antidepressant effects
effect on adenosine A1 receptors [4]: affect adenosine A1 receptors
anxiolytic effect [5]: anxiolytic effect
reactive oxygen species (ROS) production by mitochondria [6]: inhibits
anti-inflammatory properties [7]: strong anti-inflammatory properties
cognitive impairment [8]: improve cognitive impairment
cortical transcriptional changes [8]: reverse cortical transcriptional changes
development of a social recognition deficit [9]: prevent the development of a social recognition deficit
NF-icB activation [10]: inhibits

C[C@@H](O)CCOC(=O)C[C@@H](C)O [(R)-3-hydroxyburyl (R)-3-hydroxybutyrate]
cognitive and physical performance [11]: improved cognitive and physical performance

C[C@@H](O)CCOC(=O)C[C@@H](C)O [ketone monoester]
mood, affect, self-care, cognitive and daily activity performance [12]: improved markedly
